Where two headings read alike, the source gives them in different places.
Experiments:
human orexin-1 receptor = target: T1, human orexin-1 receptor (Homo sapiens, UniProt O43613); test: FLIPR intracellular calcium assay, orexin receptor antagonistic activity, CHO cells expressing human orexin-1 receptor; assay type: cell-based; settings: read-out: OX1 IC50
T1 construct: expressed in transfected cells; host or cells: CHO cells (G418 selection)
T1 sequence (O43613 1-425): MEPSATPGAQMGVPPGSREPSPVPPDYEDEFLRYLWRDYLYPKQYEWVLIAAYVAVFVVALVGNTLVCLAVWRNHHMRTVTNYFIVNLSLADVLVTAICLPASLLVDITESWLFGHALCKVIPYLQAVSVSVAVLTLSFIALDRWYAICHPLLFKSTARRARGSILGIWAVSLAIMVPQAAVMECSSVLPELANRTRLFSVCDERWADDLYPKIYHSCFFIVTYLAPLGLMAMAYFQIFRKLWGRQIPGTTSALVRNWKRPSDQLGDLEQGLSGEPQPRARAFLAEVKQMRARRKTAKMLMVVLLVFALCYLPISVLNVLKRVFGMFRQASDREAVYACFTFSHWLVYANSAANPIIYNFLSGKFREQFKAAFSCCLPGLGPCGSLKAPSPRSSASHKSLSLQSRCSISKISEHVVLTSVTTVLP
Method: (§1) The orexin receptor antagonistic activity of the compounds of formula (I) is determined in accordance with one of the following experimental methods.
(§2) Chinese hamster ovary (CHO) cells expressing the human orexin-1 receptor and the human orexin-2 receptor, respectively, are grown in culture medium (Ham F-12 with L-Glutamine) containing 300 μg/ml G418, 100 U/ml penicillin, 100 μg/ml streptomycin and 10% heat inactivated fetal calf serum (FCS). The cells are seeded at 20'000 cells/well into 384-well black clear bottom sterile plates (Greiner). The seeded plates are incubated overnight at 37° C. in 5% CO2.
(§3) Human orexin-A as an agonist is prepared as 1 mM stock solution in MeOH: water (1:1), diluted in HBSS containing 0.1% bovine serum albumin (BSA), NaHCO3: 0.375 g/l and 20 mM HEPES for use in the assay at a final concentration of 3 nM.
(§4) Antagonists are prepared as 10 mM stock solution in DMSO, then diluted in 384-well plates, first in DMSO, then in HBSS containing 0.1% bovine serum albumin (BSA), NaHCO3: 0.375 g/l and 20 mM HEPES.
(§5) On the day of the assay, 50 μl of staining buffer (HBSS containing 1% FCS, 20 mM HEPES, NaHCO3: 0.375 g/l, 5 mM probenecid (Sigma) and 3 μM of the fluorescent calcium indicator fluo-4 AM (1 mM stock solution in DMSO, containing 10% pluronic) is added to each well.
(§6) The 384-well cell-plates are incubated for 50 min at 37° C. in 5% CO2 followed by equilibration at RT for 30-120 min before measurement.
(§7) Within the Fluorescent Imaging Plate Reader (FLIPR2 or FLIPR Tetra, Molecular Devices), antagonists are added to the plate in a volume of 10 μl/well, incubated for 10 min and finally 10 μl/well of agonist is added. Fluorescence is measured for each well at 1 second intervals, and the height of each fluorescence peak is compared to the height of the fluorescence peak induced by 3 nM orexin-A with vehicle in place of antagonist. For each antagonist, the IC50 value (the concentration of compound needed to inhibit 50% of the agonistic response) is determined. Optimized conditions may be achieved by adjustment of pipetting speed and cell splitting regime. The calculated IC50 values of the compounds may fluctuate depending on the daily cellular assay performance. Fluctuations of this kind are known to those skilled in the art.

human orexin-2 receptor = target: T2, human orexin-2 receptor (Homo sapiens, UniProt O43614); test: FLIPR intracellular calcium assay, orexin receptor antagonistic activity, CHO cells expressing human orexin-2 receptor; assay type: cell-based; settings: read-out: OX2 IC50
T2 construct: expressed in transfected cells; host or cells: CHO cells (G418 selection)
T2 sequence (O43614 1-444): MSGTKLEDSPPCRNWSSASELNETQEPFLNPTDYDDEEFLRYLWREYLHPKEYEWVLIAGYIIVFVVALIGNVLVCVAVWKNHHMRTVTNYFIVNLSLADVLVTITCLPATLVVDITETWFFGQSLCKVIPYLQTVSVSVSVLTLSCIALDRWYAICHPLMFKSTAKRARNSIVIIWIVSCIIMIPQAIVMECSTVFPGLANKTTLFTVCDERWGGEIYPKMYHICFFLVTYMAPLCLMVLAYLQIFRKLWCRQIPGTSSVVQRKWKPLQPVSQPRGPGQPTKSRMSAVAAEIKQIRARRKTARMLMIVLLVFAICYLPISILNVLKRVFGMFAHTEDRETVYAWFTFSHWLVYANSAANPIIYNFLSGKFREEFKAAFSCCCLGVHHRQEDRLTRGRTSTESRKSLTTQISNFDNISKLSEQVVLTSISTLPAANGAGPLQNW
Method: as §1, §2, §3, §4, §5, §6, §7

[1] = marked with *: measured with FLIPR Tetra, 3 nM orexin-A as agonist
[2] = measured with FLIPR 2, 3 nM orexin-A as agonist

| SMILES | IC50 (human orexin-1 receptor; [1]) | IC50 (human orexin-2 receptor; [1]) | IC50 (human orexin-1 receptor; [2]) | IC50 (human orexin-2 receptor; [2]) |
| --- | --- | --- | --- | --- |
| O=C(NC[C@@H]1CCCCN1C(=O)c1nc(-c2ccccc2)sc1-c1ccccc1F)c1cccc2c1CCO2 [Example 17, (S)-2,3-dihydro-benzofuran-4-carboxylic acid{1-[5-(2-fluoro-phenyl)-2-phenyl-thiazole-4-carbonyl]-piperidin-2-ylmethyl}-amide] | 20 nM | 68 nM | – | – |
| Cc1ccc(-c2sc(-c3ccccc3)nc2C(=O)N2CCCC[C@H]2CNC(=O)c2c(C)nc3sccn23)cc1 [Example 38, (S)-6-methyl-imidazo[2,1-b]thiazole-5-carboxylic acid[1-(2-phenyl-5-p-tolyl-thiazole-4-carbonyl)-piperidin-2-ylmethyl]-amide] | – | – | 2 nM | 8 nM |
| Cn1cc(C(=O)NC[C@@H]2CCCCN2C(=O)c2nc(-c3ccccc3)sc2-c2ccccc2F)c2ccccc21 [Example 24, (S)-1-methyl-1H-indole-3-carboxylic acid{1-[5-(2-fluoro-phenyl)-2-phenyl-thiazole-4-carbonyl]-piperidin-2-ylmethyl}-amide] | 10 nM | 60 nM | – | – |
| Cc1cccc(-c2nc(C(=O)N3CCC[C@H]3CNC(=O)c3c(C)nc4sccn34)c(-c3ccc(F)cc3)s2)c1 [Example 45, (S)-6-methyl-imidazo[2,1-b]thiazole-5-carboxylic acid{1-[5-(4-fluoro-phenyl)-2-m-tolyl-thiazole-4-carbonyl]-pyrrolidin-2-ylmethyl}-amide] | – | – | 1 nM | 12 nM |
| COc1cccc(-c2nc(C(=O)N3CCCC[C@H]3CNC(=O)c3c(C)nc4sccn34)c(-c3ccc(F)cc3)s2)c1 [Example 5, (S)-6-methyl-imidazo[2,1-b]thiazole-5-carboxylic acid{1-[5-(4-fluoro-phenyl)-2-(3-methoxy-phenyl)-thiazole-4-carbonyl]-piperidin-2-ylmethyl}-amide] | – | – | 2 nM | 7 nM |
| Cc1nc2sccn2c1C(=O)NC[C@@H]1CCCCN1C(=O)c1nc(-c2ccc(F)cc2)sc1-c1ccc(F)cc1 [Example 3] | – | – | 1 nM | 24 nM |
| Cn1nc(C(=O)NC[C@@H]2CCCN2C(=O)c2nc(-c3cccnc3)sc2-c2cccc(Cl)c2)c2ccccc21 [Example 44, (S)-1-methyl-1H-indazole-3-carboxylic acid{1-[5-(3-chloro-phenyl)-2-pyridin-3-yl-thiazole-4-carbonyl]-pyrrolidin-2-ylmethyl}-amide] | 9 nM | 18 nM | – | – |
